In ChEMBL document CHEMBL1201862, “PubChem BioAssay data set” (2004) one finds IC50 and EC50 data, which are given here for six molecules.

Calls of active or inactive are those of the source. Some results are limits rather than exact numbers.

One assay has as its target T1, Hexokinase HKDC1 (Homo sapiens, UniProt Q2TB90).
T1 sequence (Q2TB90 whole entry): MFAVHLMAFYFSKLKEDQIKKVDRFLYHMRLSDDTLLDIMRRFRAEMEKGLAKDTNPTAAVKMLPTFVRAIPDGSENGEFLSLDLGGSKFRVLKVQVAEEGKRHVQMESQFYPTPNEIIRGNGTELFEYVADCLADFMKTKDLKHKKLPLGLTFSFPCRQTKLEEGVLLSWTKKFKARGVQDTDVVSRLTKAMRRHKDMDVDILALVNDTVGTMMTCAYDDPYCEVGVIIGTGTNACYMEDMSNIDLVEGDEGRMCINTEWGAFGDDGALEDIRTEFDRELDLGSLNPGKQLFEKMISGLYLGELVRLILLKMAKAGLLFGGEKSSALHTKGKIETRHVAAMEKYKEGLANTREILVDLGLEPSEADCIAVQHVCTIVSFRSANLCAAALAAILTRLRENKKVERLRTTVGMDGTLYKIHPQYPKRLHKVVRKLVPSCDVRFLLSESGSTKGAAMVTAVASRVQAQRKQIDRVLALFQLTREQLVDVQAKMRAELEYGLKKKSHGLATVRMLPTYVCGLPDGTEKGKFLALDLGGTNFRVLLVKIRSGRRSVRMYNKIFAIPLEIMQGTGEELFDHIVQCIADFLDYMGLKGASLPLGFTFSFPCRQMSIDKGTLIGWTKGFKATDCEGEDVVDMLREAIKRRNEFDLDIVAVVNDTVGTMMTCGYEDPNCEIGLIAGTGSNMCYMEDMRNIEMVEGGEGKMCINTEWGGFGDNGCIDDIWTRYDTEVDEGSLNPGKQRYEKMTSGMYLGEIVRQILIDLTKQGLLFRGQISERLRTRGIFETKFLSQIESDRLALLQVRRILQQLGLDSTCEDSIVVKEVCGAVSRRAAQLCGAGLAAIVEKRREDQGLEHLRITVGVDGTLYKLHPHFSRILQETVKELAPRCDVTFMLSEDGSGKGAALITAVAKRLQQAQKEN
Nature of the assay: inhibition of HKDC1 glucose phosphorylation – biochemical, W721R variant, dose response (AID 504729). Type of assay: functional.

Assay [1] concerns the target Envelope glycoprotein gp160 (Human immunodeficiency virus 1, UniProt Q6QLK5). Nature of the assay: cell-free HIV fusion peptide-binding blockers – biochemical, uHTS, fluorescence dequenching, […] (AID 1986).
Assay [2] deals with Voltage-gated N-type calcium channel alpha-1B subunit/Amyloid beta A4 precursor protein-binding family A member 1 (Homo sapiens, UniProt Q00975+Q02410). It is filed as protein assay.
In assay [3] the target is Serine/threonine-protein phosphatase (Homo sapiens, UniProt Q9BPW0). The assay is described as follows: inhibition of protein phosphatase 5 activity – biochemical, fluorescence, dose response (AID 2395).
In assay [4] the target is T2, Zinc finger protein mex-5 (Caenorhabditis elegans, UniProt Q9XUB2).
T2 sequence (Q9XUB2 whole entry): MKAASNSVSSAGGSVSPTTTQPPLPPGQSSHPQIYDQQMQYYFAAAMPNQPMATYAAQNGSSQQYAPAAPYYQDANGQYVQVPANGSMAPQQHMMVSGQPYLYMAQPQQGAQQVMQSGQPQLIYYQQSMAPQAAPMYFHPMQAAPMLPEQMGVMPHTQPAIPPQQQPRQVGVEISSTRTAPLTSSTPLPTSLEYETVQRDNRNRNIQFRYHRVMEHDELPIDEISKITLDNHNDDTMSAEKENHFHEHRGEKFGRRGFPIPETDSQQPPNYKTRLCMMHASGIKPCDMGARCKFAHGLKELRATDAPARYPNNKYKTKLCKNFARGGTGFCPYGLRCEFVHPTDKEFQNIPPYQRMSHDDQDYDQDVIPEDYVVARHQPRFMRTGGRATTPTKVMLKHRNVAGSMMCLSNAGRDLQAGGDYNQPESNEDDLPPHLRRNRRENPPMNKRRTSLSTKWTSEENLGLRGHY
Nature of the assay: potency of MEX-5 RNA-binding blockers – biochemical, C. elegans, fluorescence polarization, dose response (AID 1960). Background: Fluorescence polarisation rises when a labelled molecule tumbles more slowly, as on binding a larger partner.

Assay [5] can be described thus: Trypanosoma cruzi growth suppression in host cells – NIH3T3 host cells, beta-gal luminescence, confirmation (AID 2044).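 Further: intracellular parasites grown in NIH/3T3 mouse fibroblasts as host cells; luminescent beta-galactosidase reporter signal from transgenic T. cruzi replicating inside host cells; inhibitors lower the luminescence signal.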 It is filed as functional, cell-based.
The nature of assay [6]: NIH3T3 cell viability loss – ATP luminescence, mouse fibroblasts, counter-screen, dose response (AID 2010).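 Further: cells exposed to compound for about 90 hours before reading.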 It is filed as functional, cell-based. (In general: The purpose of a counterscreen is to sort out artefacts and off-target activity.)
A further assay has as its target Melanocortin receptor 4 (Homo sapiens, UniProt P32245). It is filed as functional, cell-based.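 Further: Cell-based assay with luminescence read-out, confirmatory dose-response testing for agonist activity of biased ligands at MC4R; human U2OS cells with tagged receptor and beta-arrestin; potency of agonists that increase receptor coupling to beta-arrestin.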

Chain of Envelope glycoprotein gp160 (Q6QLK5 whole entry, the tested form may be a part): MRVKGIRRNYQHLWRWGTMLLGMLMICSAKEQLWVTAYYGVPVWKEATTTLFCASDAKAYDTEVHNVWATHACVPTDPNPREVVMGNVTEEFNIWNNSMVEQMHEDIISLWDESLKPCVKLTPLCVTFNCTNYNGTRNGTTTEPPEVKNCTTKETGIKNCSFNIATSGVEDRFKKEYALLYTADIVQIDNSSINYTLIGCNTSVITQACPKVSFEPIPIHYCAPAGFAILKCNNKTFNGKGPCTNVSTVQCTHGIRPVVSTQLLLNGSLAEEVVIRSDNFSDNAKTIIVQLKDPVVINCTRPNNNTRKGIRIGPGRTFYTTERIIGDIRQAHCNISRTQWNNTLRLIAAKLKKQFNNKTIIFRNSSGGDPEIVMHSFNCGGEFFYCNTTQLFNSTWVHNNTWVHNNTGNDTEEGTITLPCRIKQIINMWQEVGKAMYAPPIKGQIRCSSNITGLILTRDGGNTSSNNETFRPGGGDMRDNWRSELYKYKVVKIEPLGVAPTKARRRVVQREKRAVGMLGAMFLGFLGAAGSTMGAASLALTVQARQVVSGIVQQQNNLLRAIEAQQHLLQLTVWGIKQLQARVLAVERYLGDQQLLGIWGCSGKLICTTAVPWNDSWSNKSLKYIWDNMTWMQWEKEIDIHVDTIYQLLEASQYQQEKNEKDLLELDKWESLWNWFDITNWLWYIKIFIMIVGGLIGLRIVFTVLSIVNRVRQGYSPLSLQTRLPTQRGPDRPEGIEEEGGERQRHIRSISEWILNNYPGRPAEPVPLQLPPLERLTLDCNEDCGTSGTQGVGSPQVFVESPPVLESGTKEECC
Chain of Melanocortin receptor 4 (P32245 whole entry): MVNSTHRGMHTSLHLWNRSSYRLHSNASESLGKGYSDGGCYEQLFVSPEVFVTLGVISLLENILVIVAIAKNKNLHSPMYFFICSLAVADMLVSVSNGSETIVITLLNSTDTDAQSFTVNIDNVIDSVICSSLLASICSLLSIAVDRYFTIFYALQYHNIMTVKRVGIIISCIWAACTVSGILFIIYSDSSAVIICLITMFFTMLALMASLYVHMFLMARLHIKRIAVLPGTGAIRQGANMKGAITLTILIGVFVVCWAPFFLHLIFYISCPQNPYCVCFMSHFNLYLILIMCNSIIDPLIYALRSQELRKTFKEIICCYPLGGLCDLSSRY
Chain of Voltage-gated N-type calcium channel alpha-1B subunit/Amyloid beta A4 precursor protein-binding family A member 1 (Q00975 whole entry): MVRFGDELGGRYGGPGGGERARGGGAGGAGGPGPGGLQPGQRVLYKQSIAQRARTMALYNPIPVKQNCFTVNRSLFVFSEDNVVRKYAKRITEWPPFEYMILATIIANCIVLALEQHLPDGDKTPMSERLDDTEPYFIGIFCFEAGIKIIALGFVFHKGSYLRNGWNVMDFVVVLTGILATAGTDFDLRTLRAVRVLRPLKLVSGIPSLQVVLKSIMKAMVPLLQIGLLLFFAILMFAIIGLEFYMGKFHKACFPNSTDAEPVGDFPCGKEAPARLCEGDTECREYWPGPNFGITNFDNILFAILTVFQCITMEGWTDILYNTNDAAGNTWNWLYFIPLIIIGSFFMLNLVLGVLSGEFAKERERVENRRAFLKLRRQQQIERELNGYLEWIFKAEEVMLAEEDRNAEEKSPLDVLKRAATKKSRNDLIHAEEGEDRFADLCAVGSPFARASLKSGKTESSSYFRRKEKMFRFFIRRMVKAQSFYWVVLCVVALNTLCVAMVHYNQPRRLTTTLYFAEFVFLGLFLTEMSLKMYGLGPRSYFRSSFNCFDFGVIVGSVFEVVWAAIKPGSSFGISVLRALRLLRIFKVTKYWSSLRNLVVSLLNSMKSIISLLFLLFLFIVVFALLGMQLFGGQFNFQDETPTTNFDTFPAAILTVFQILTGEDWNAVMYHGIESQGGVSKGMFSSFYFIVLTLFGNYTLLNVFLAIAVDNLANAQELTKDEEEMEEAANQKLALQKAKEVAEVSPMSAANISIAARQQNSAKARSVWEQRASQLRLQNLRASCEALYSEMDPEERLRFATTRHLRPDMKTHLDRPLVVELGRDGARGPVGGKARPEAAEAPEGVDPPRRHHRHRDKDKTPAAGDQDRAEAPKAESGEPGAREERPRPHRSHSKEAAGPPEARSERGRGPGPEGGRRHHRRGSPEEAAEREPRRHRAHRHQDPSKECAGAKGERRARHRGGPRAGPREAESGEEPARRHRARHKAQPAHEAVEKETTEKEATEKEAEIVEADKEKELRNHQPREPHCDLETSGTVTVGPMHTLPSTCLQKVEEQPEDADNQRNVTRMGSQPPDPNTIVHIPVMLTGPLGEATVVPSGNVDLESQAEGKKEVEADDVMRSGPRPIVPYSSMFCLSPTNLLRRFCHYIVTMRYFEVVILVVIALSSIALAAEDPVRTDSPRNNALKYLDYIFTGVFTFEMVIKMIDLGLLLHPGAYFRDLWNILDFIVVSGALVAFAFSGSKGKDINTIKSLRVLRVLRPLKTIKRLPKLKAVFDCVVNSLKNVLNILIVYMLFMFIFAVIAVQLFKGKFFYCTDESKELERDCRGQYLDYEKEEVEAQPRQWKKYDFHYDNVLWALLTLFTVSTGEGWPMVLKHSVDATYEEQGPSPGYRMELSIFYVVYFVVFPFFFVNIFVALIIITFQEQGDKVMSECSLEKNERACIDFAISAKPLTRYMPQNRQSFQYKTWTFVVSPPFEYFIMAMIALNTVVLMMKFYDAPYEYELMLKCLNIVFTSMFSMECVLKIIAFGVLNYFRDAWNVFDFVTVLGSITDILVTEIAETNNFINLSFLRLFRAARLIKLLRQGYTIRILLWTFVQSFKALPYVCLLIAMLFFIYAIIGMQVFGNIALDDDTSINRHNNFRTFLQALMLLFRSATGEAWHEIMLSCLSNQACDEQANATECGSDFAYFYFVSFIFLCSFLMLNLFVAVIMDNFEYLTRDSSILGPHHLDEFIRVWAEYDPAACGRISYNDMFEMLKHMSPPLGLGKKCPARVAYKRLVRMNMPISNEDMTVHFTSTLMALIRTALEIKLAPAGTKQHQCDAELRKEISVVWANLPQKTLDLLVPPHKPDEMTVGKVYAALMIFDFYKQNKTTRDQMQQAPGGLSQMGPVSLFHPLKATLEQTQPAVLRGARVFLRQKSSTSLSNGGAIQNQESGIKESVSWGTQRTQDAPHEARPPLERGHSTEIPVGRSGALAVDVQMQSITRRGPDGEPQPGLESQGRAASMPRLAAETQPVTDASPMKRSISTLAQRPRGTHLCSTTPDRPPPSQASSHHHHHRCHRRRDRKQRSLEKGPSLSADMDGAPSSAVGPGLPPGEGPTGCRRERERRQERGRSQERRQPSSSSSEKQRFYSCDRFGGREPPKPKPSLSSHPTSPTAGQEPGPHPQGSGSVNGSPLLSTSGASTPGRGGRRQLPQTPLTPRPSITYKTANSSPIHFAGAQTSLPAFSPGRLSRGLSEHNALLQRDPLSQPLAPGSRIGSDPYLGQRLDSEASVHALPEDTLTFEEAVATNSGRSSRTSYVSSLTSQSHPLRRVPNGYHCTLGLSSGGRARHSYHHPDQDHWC
Chain of Voltage-gated N-type calcium channel alpha-1B subunit/Amyloid beta A4 precursor protein-binding family A member 1 (Q02410 whole entry): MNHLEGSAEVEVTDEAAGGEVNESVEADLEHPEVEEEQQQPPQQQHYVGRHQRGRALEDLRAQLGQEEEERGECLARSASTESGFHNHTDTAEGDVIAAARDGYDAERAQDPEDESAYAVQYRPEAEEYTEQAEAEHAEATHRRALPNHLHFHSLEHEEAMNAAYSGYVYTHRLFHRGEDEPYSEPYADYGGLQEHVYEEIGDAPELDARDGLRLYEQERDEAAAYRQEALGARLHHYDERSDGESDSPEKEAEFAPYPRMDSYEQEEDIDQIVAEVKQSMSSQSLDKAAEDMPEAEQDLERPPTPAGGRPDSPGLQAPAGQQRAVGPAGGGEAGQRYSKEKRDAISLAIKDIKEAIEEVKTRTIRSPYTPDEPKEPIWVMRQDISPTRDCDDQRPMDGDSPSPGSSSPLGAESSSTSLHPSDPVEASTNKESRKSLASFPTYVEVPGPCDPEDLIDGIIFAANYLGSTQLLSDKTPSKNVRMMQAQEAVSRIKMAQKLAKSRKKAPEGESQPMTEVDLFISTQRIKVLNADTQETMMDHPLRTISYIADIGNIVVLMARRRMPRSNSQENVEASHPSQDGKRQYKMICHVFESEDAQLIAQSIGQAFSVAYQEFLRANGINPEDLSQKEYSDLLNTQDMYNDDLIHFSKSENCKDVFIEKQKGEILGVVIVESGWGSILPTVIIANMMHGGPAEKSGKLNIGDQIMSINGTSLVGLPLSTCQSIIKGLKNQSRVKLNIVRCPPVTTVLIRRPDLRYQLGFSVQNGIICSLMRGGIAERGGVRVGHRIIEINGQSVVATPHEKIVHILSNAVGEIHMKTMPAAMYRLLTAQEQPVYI
Chain of Serine/threonine-protein phosphatase (Q9BPW0 whole entry): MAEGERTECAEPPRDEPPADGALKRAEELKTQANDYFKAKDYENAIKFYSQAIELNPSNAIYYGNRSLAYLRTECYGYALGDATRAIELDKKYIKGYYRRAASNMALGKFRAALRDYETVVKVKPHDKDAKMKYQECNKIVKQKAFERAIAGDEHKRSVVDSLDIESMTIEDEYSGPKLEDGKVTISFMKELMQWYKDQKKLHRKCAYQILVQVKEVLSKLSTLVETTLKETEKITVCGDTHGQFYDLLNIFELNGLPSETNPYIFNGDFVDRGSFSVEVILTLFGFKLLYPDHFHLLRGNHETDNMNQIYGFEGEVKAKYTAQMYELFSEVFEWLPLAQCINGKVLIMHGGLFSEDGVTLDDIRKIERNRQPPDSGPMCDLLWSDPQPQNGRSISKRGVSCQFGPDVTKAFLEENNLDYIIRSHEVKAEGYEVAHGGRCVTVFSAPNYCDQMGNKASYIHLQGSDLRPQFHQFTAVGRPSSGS

Turning to `Cc1oc2c(c1C(=O)c1ccccc1)C(=O)C(=O)c1ccccc1-2`, on Hexokinase HKDC1, the half-inhibitory concentration (IC50) (as a rule, the concentration that inhibits the measured activity by half) was 14.5 µM (active).
Turning to `O=C(O)COc1ccc(/C=N/NC(=O)c2ccc(-c3csc(Nc4ccc(Cl)cc4)n3)cc2)cc1`, the IC50 in assay [1] was 15 µM (active); on Hexokinase HKDC1, 33 µM (inactive); in assay [2], > 50 µM (inactive).
Regarding `O=C1CCCC2=C1C1(O)C(=O)c3ccccc3C1(O)O2` (stereo unspecified), the IC50 in assay [3] was > 0.828 µM (active).
For the molecule `Nc1ccc2nc3c(O)nc(S)nc3nc2c1`, the EC50 (in general, the concentration at which the effect is half-maximal) in assay [4] is 1.67 µM (inconclusive).
As to `CCN1/C(=C/c2ccc3cc(C)ccc3[n+]2CC)Sc2cc(C)c(C)cc21`, the figures for the EC50 (in assay [5]; in assay [6]; at Melanocortin receptor 4) were < 0.1 µM (active), 5.67 µM (active) and > 3.3 µM (active), respectively.
Consider `O=C1C(Cl)=C(NCCN2CCCCC2)C(=O)c2ccccc21`, for which the EC50 in assay [5] was 0.509 µM (active); in assay [6] it was 0.798 µM (active).
